Results reported in a melting point compilation (Tetko et al.; mined from patent text by program, amines drawn as free bases though some values may be those of a salt).

First: CCOC(=O)c1cc(=O)cc(-c2ccccc2O)o1
Second: N#Cc1c2cccccc-2n(CC(=O)O)c1=O
The melting point of the first is lower: 213 to 215 °C for the first, 294 to 295 °C for the second.

First: O=C(O)CNc1cc(Cl)ccc1C(=O)O
Second: CC(C)(C)OC(=O)Nc1ccc(O)c(C(=O)O)c1
The melting point of the first is lower: 231 °C for the first, greater than 270 °C for the second.

First: Cc1ccc(C(=O)c2ccc3nc(Cl)nc(-c4cccc(Cl)c4)c3c2)cc1
Second: CNc1nc(-c2cccc(NC(=O)c3ccnc(Cl)c3)c2)c2cc(OC)c(OC)cc2n1
The melting point of the first is higher: 156 °C for the first, 151 to 153 °C for the second.

Compared with `CC(C)(C)OC(=O)N(C[C@H](O)COc1ccc(O)cc1)C1CNC1`, `CCN(Cc1cccc(-c2ccc(CC3SC(=O)NC3=O)cc2)c1)C(=O)OC(C)(C)C` (stereo unspecified) is lower in melting point: 130 to 134 °C for the first, 103 °C for the second.

Compared with `CCCCc1ccc(NC(=O)OCc2ccccc2)c(=O)n1CC(=O)OC`, `COC(=O)Cn1nnnc1CCC(NC(=O)CCC(C)(NC(=O)OCc1ccccc1)C(=O)O)C(=O)OC` (stereo unspecified) is lower in melting point: 111 to 112 °C for the first, 64 to 65 °C for the second.

First: CC1(C)Oc2ccc(OC(F)F)cc2[C@@H](N2CCCCC2=O)[C@@H]1O (relative stereo)
Second: CC1C(=O)c2cc(NS(C)(=O)=O)ccc2OC12CCN(CCc1ccccn1)CC2 (stereo unspecified)
The melting point of the first is lower: 165 °C for the first, 210 to 211 °C for the second.

First: COc1ccc(N2C(=O)C(=C3CCCN3C)c3ccccc32)cc1
Second: CN1CCC(OC(=O)N2c3ccccc3NC(=O)c3ccccc32)CC1
The melting point of the first is lower: 90 to 93 °C for the first, 203 to 204 °C for the second.

First: O=C1CCC(c2ccc(C(=O)Nc3ccccc3F)cc2)=NN1
Second: Cc1ccccc1NC(=O)c1ccc(-n2nc(C3CC3)cc2C2CC2)nc1
The melting point of the first is higher: 242 to 244 °C for the first, 123 to 126 °C for the second.

First: O=C(c1ccccc1)c1ccc(S)cc1
Second: O=C(c1ccccc1)c1ccc(NC(=O)C(O)(C(F)F)C(F)F)cc1
The melting point of the first is lower: 72 to 75 °C for the first, 139 to 142 °C for the second.

First: N#CN1CCC(=C2c3ccccc3Oc3ccc(Cl)cc32)CC1
Second: COC(=O)c1c(Cc2ccc(S(=O)(=O)N3CCN(C)CC3)cc2)c(=O)c2ccc(Cl)cc2n1-c1ccccc1
The melting point of the first is lower: 148 to 150 °C for the first, 223 to 227 °C for the second.

Compared with `COCCNc1c([N+](=O)[O-])cnn1-c1c(Cl)cc(C(F)(F)F)cc1Cl`, `COC(=O)CNC(=O)c1ccc(Cl)c(Cl)c1` is higher in melting point: 85 to 90 °C for the first, 133 to 134 °C for the second.

First: CNC(=O)[C@@H]1C[C@@H](OCC2CC2)CN1S(=O)(=O)c1ccc(Cl)c(COc2cccc3c(-n4ccnc4)cc(C)nc23)c1Cl
Second: CNC(=O)c1ccc(N2CCN(Cc3cnc4c(c3)[nH]c(=O)n3cccc43)CC2)c(Cl)c1
The melting point of the first is lower: 98 °C for the first, 260 to 266 °C for the second.

First: CCN(CCCCCN(CCCCCN(CC)S(=O)(=O)c1c(C)cc(C)cc1C)S(=O)(=O)c1c(C)cc(C)cc1C)S(=O)(=O)c1c(C)cc(C)cc1C
Second: CCCc1cn(Cc2ccc(C(=O)NS(=O)(=O)c3ccccc3Cl)cc2OC)c2cc(CCCC(=O)N(C)C)ccc12
The melting point of the first is lower: 60 to 62 °C for the first, 137 to 138 °C for the second.

First: O=[N+]([O-])c1ccc(F)c(Br)c1
Second: CCOC(=O)N1CC=C(c2cc(F)c(Br)cc2F)CC1
The melting point of the first is higher: 59 °C for the first, 40 to 44 °C for the second.

First: CN1Cc2c(-c3noc(CN)n3)ncn2-c2ccsc2C1=O
Second: CC1=NN(CC2CC2)CC2=C3C1=NN(c1ccc(C(C)C)cc1Br)C(=O)N3CC2
The melting point of the first is higher: 202 to 204 °C for the first, 89 to 90 °C for the second.

First: COCCC(=O)Nc1ccc(CCCc2ccccc2OCc2ccccc2)cc1
Second: CC(C)(C)c1cc(CCCOc2ccccc2NC(=O)NC2CCN(Cc3ccccc3)CC2)cc(C(C)(C)C)c1O
The melting point of the first is lower: 65 to 66 °C for the first, 148 to 149 °C for the second.

First: Cc1c(-c2ccc(F)cc2)c(-c2ccc(S(C)(=O)=O)cc2)c2n1CCC2
Second: NS(=O)(=O)c1ccc(-c2cnn(Cc3ccc(F)cc3F)c(=O)c2-c2ccc(F)cc2)cc1
The melting point of the first is lower: 191 °C for the first, 236 to 238 °C for the second.

Compared with `COC(=O)C[C@@H](CC(=O)C=Cc1c(-c2ccc(F)cc2)c(-c2ccccc2)c(C(=O)Nc2cccc(S(N)(=O)=O)c2)n1C(C)C)O[Si](C)(C)C(C)(C)C`, `CCCCS(=O)(=O)N[C@@H](Cc1ccc(NC(=O)NC(=O)c2ccc(C#N)cc2)cc1)C(=O)OC(C)(C)C` is higher in melting point: 90 to 91 °C for the first, 171 to 173 °C for the second.

First: CCOC(=O)CCC1(NC(=O)c2ccc3ccccc3c2)C(=O)N(c2ccccc2)c2cc(OCC)ccc21 (stereo unspecified)
Second: O=C(O)c1cccc(NC(=O)C(CSC(=O)c2ccccc2)Cc2ccccc2)c1 (stereo unspecified)
The melting point of the first is higher: 195 to 196 °C for the first, 182 to 184 °C for the second.

First: COC1=Cc2cc(Cl)ccc2C(O)(C2CCN(C)CC2)c2ccsc21 (stereo unspecified)
Second: COc1cc(Nc2nccc(-c3sc(CO)nc3C)n2)ccc1N1CCOCC1
The melting point of the first is higher: 223 to 227 °C for the first, 180 to 181 °C for the second.

First: CCOC(=O)c1c(CN(CC)CC)nc2sc3cnccc3c2c1-c1ccc(OC)c(OC)c1
Second: CCc1nnc(/C=C/c2cn(-c3ccccc3)nc2OCc2ccc(OCc3nc(-c4ccco4)oc3C)c(OC)c2)o1
The melting point of the first is lower: 163 to 165 °C for the first, 183 to 184 °C for the second.

Compared with `O=C(NCCCCCCCCCCCCNC(=O)c1ccc(OC(F)(F)F)cc1)c1ccc(OC(F)(F)F)cc1`, `O=C(O)c1ccccc1C(=O)c1ccc(O)cc1` is lower in melting point: 158 to 159 °C for the first, 124 to 128 °C for the second.

Compared with `Cc1nc2ccccc2nc1OCc1nc(Cl)cc(N2CCCC2)n1`, `CN(C)CCNC(=O)c1cn(C)c(=O)c2nc3ccccc3nc12` is higher in melting point: 136 to 140 °C for the first, 215 to 218 °C for the second.

First: O=C(CCCCCN1CCN(c2cccc3c2OCCCO3)CC1)N1Cc2ccccc2C1
Second: CC(CN1C(=O)C2(COc3cc4c(cc32)CCO4)c2ccccc21)OCOCc1ccccc1 (stereo unspecified)
The melting point of the first is higher: 131 °C for the first, 49 to 52 °C for the second.

Compared with `COc1cccc2c1SCC(=O)C2`, `COc1cccc2c1C(=O)c1cccc3cc(O)cc-2c13` is higher in melting point: 60 °C for the first, 298 to 300 °C for the second.

First: N#Cc1ccccc1-c1cccc(Cc2ccc(OCc3ccccc3)cc2)c1Nn1cnnc1
Second: N#Cc1cnc2cc(-c3ccc(CO)cc3)sc2c1Nc1ccc(Oc2ccccc2)cc1
The melting point of the first is lower: 171 to 173 °C for the first, 225 to 228 °C for the second.

First: CC(C)(C)c1nc(C=Cc2cccnc2)ncc1O
Second: CNC(=O)Cn1c(-c2ccc(C)s2)nc2cccnc21
The melting point of the first is lower: 150 to 151 °C for the first, 213 to 216 °C for the second.

First: CCCn1nc2c(N)nc3c(c2c1CCCc1cc(-c2ccccc2)no1)CCCC3
Second: CC(C)n1nc(-c2nc(C(=O)O)c(N)nc2-c2ccccc2)ccc1=O
The melting point of the first is lower: 154 to 155 °C for the first, 233 to 235 °C for the second.

Compared with `CN(C)CC/C=C/c1ccc2c(Nc3ccc(Sc4nccn4C)c(Cl)c3)c(C#N)cnc2c1`, `CCCc1ccc(-n2ncc(C#N)c2NC(C)=O)c(Cl)c1` is lower in melting point: 191 to 198 °C for the first, 143 to 144 °C for the second.

Compared with `CCCCC(CC)COc1cc(CCl)c(OC)cc1CCl` (stereo unspecified), `COc1cc(CCNC(C)=O)c(C(=O)Cc2cc(OC)c(OC)cc2[N+](=O)[O-])cc1OC` is higher in melting point: 58 to 60 °C for the first, 142 to 144 °C for the second.

Compared with `C=CCn1c(C)nc2c3c(c(C(=O)OCC)cc21)CCC1(Cc2ccccc2C1)N3`, `Cc1ccccc1[C@H](O)CCc1c(C(=O)N(C)C)cc2c(nc(C)n2C)c1O` is higher in melting point: 150 °C for the first, 200 to 202 °C for the second.

First: COC(=O)c1ccc2cc(O)ccc2c1
Second: OCc1cc(O)cc(Nc2c3ccccc3nc3ccccc23)c1
The melting point of the first is lower: 196 °C for the first, 201 to 202 °C for the second.

First: CSc1ccc(C(=O)Nc2cccnc2C(=O)Nc2ccc(Cl)cn2)c(OC2CCNCC2)c1
Second: O=C(NCC1CC1)c1cc2nccnc2c(Cl)c1NC(=O)c1cc(C(F)(F)F)nn1-c1ncccc1Cl
The melting point of the first is lower: 157 to 158 °C for the first, 180 to 183 °C for the second.

First: O=C(CCC12CCC(=O)N1C(=O)CC2)Nc1ccncc1
Second: CCOC(=O)C(C)(C)n1c(=O)[nH]c2ccc(F)cc2c1=O
The melting point of the first is higher: 285 to 287 °C for the first, 167 to 169 °C for the second.

Compared with `O=S(=O)(c1ccc(O)cc1)N1c2ccccc2-c2ccccc2C1c1ccccc1` (stereo unspecified), `CN=C(C1=C(O)C(=O)c2ccccc2C1=O)c1ccccc1` is higher in melting point: 210 to 212 °C for the first, 235 to 237 °C for the second.

First: Cc1nc(Sc2cccc(C(F)(F)F)n2)sc1CC(=O)O
Second: OCc1sc(Cl)nc1-c1ccc(Cl)cc1
The melting point of the first is higher: 162 to 164 °C for the first, 113 to 114 °C for the second.

First: Cc1cc(=O)[nH]c(SCc2ccc(Br)cc2N(C)C)n1
Second: CCOc1ccnc(CSc2nc3cc4c(cc3[nH]2)C(C)(C)C(=O)C4(C)C)c1C
The melting point of the first is lower: 163 to 164 °C for the first, 175 to 176 °C for the second.

First: CCc1c2c(nc3cc(F)cc(F)c13)-c1cc3c(c(=O)n1C2)COC(=O)CC3(O)CC (stereo unspecified)
Second: CCC(C)(C)c1cc(-c2c[nH]c(C=C3SC(N4CCOCC4)=NC3=O)c2)ccc1O
The melting point of the first is lower: 255 °C for the first, 314 °C for the second.

Compared with `COC(=O)C=Cc1ccc(OCC2CN(c3ccccc3)C(=O)O2)cc1` (stereo unspecified), `Cc1ccc(C=Cc2ccc(-c3ccccc3)s2)cc1` is lower in melting point: 179 to 181 °C for the first, 159 to 160 °C for the second.

First: CC(c1oc2ccccc2c(=O)c1-c1cccc(F)c1)n1nc(-c2cn[nH]c2)c2c(N)ncnc21 (stereo unspecified)
Second: Cc1ccc(-c2cn(C)cc(-c3ccccc3)c2=O)cc1Br
The melting point of the first is higher: 223 to 226 °C for the first, 168 to 170 °C for the second.

First: Cc1cc(=O)c2ccc(OCC(O)CCl)cc2o1 (stereo unspecified)
Second: CCC(=O)N1N=C(c2ccc(N)c(C)c2)c2cc3c(cc2C[C@@H]1C)OCO3
The melting point of the first is lower: 104 to 106 °C for the first, 176 to 178 °C for the second.

First: CC(C)NCCC(C(N)=O)c1ccccc1-c1ccccc1 (stereo unspecified)
Second: N=C(N)NC(=O)c1cn(-c2nccc3ccccc23)c2ncccc12
The melting point of the first is lower: 92 to 95 °C for the first, 250 °C for the second.

First: CCCCCCCCCCCN=C=S
Second: Cc1nn(C)c(C)c1N=C=S
The melting point of the first is higher: 71 to 72 °C for the first, 51 °C for the second.

First: CC(NC(=O)Cc1cc(F)cc(F)c1)C(=O)NC1C(=O)N(CCc2ccccc2)Cc2ccccc21 (stereo unspecified)
Second: COc1ccc([N+](=O)[O-])cc1C=C1COc2ccc(OCc3ccccc3)cc2C1=O
The melting point of the first is lower: 75 to 76 °C for the first, 156 to 157 °C for the second.

First: Cc1cc(C)nc(NC(=O)NS(=O)(=O)c2csnc2Cl)n1
Second: CC(C)(C)OC(=O)n1cc2c(c1C=O)OCCO2
The melting point of the first is higher: 136 to 140 °C for the first, 94 to 95 °C for the second.

First: CCOC(=O)N(NC(N)=O)c1ccc(CC[Si](OCC)(OCC)OCC)cc1
Second: CCOC1CC2(C)C(CCC3C4CC=CC4(C)CC(N(C)C)C32)CC1O (stereo unspecified)
The melting point of the first is higher: 123 to 124 °C for the first, 51 to 54 °C for the second.

First: Clc1ccc2c(c1)Cc1cc(Cl)ccc1OCCOCCOCCOCCO2
Second: C1=Cc2cc(/C=C/c3ccc4c(c3)C=C4)ccc21
The melting point of the first is higher: 144 °C for the first, 132 °C for the second.

First: O=C1CCC2C=C(c3cccnc3)C(F)=CC2N1 (stereo unspecified)
Second: CC(O)CNC1(F)C=CC(N)=C([N+](=O)[O-])C1 (stereo unspecified)
The melting point of the first is higher: 228 °C for the first, 97 °C for the second.
